# Reference: the supplement of paper PMC10307832
# Tests used:
# Experiment in all cases: relative viability (nuclei count vs DMSO), 5 days (fraction); higher = more cells survive
# [1] = compound: Cn1cc(-c2cnn3c(N)c(Br)c([C@@H]4CCCNC4)nc23)cn1
# Method in brief: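 Viability was defined as treated-well nuclei divided by vehicle-well nuclei, with the median taken over replicate plates. Cells from lung cancer lines sat overnight at 37 °C in 1536-well plates, received five √10-spaced library-drug doses by pinning on vehicle-anchored plates, and grew 5 days without medium change before one-step fixation, permeabilisation and Hoechst staining, 4× imaging and MetaXpress nuclear counts. Only plates with control CV under 25% and at least one doubling were kept.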
# [2] = compound: Cn1cc(-c2cnn3c(N)c(Br)c([C@@H]4CCCNC4)nc23)cn1 + CC1(C)CCC(c2ccc(Cl)cc2)=C(CN2CCN(c3ccc(C(=O)NS(=O)(=O)c4ccc(N[C@H](CCN5CCOCC5)CSc5ccccc5)c(S(=O)(=O)C(F)(F)F)c4)cc3)CC2)C1 [Navitoclax] (partner 0.5 µM)
# Method in brief: (§1)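 For relative viability, nuclei counts in treated wells were divided by those in vehicle wells. Lung cancer cell lines had been pin-tool dosed in 1536-well plates the day after seeding and cultured for 5 days, then fixed and stained in one step (final 0.05% Triton X-100, 1% formaldehyde, 1 ug/ml Hoechst) and imaged at 4×. Doses were one drug alone or a fixed anchor-drug dose plus five library-drug doses (not always all listed) in √10 steps, and values are duplicate-plate medians.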
# [3] = compound: Cn1cc(-c2cnn3c(N)c(Br)c([C@@H]4CCCNC4)nc23)cn1 + COc1cc2c(Oc3ccc(NC(=O)C4(C(=O)Nc5ccc(F)cc5)CC4)cc3F)ccnc2cc1OCCCN1CCOCC1 [Foretinib] (partner 0.25 µM)
# Method in brief: as §1
# [4] = compound: Cn1cc(-c2cnn3c(N)c(Br)c([C@@H]4CCCNC4)nc23)cn1 + CS(=O)(=O)CCNCc1ccc(-c2ccc3ncnc(Nc4ccc(OCc5cccc(F)c5)c(Cl)c4)c3c2)o1 [Lapatinib] (partner 2 µM)
# Method in brief: as §1
# [5] = compound: Cn1cc(-c2cnn3c(N)c(Br)c([C@@H]4CCCNC4)nc23)cn1 + CS(=O)(=O)N1CCN(Cc2cc3nc(-c4cccc5[nH]ncc45)nc(N4CCOCC4)c3s2)CC1 [Pictilisib] (partner 1 µM)
# Method in brief: as §1
# [6] = compound: Cn1cc(-c2cnn3c(N)c(Br)c([C@@H]4CCCNC4)nc23)cn1 + C[C@@H](Oc1cc(-c2cnn(C3CCNCC3)c2)cnc1N)c1c(Cl)ccc(F)c1Cl [Crizotinib] (partner 1 µM)
# Method in brief: as §1
# [7] = compound: Cn1cc(-c2cnn3c(N)c(Br)c([C@@H]4CCCNC4)nc23)cn1 + C[C@]1(O)C[C@@H](c2nc(-c3ccc4ccc(-c5ccccc5)nc4c3)c3c(N)nccn32)C1 [Linsitinib] (partner 1 µM)
# Method in brief: as §1
# [8] = compound: Cn1cc(-c2cnn3c(N)c(Br)c([C@@H]4CCCNC4)nc23)cn1 + Cc1nc(NC(=O)N2CCC[C@H]2C(N)=O)sc1-c1ccnc(C(C)(C)C(F)(F)F)c1 [Alpelisib] (partner 2 µM)
# Method in brief: as §1
# [9] = compound: Cn1cc(-c2cnn3c(N)c(Br)c([C@@H]4CCCNC4)nc23)cn1 + N=C(N)NC(=N)NCCc1ccccc1 [Phenformin] (partner 250 µM)
# Method in brief: as §1
# [10] = compound: Cn1cc(-c2cnn3c(N)c(Br)c([C@@H]4CCCNC4)nc23)cn1 + Nc1ncn([C@H]2C[C@H](O)[C@@H](CO)O2)c(=O)n1 [Decitabine] (partner 2 µM)
# Method in brief: as §1
# [11] = compound: Cn1cc(-c2cnn3c(N)c(Br)c([C@@H]4CCCNC4)nc23)cn1 + O=C(c1cc(Cc2n[nH]c(=O)c3ccccc23)ccc1F)N1CCN(C(=O)C2CC2)CC1 [Olaparib] (partner 8 µM)
# Method in brief: as §1
# [12] = compound: Cn1cc(-c2cnn3c(N)c(Br)c([C@@H]4CCCNC4)nc23)cn1 + CC(=O)Nc1cccc(-n2c(=O)n(C3CC3)c(=O)c3c(Nc4ccc(I)cc4F)n(C)c(=O)c(C)c32)c1 [Trametinib] (partner 0.02 µM)
# Method in brief: as §1
# [13] = compound: Cn1cc(-c2cnn3c(N)c(Br)c([C@@H]4CCCNC4)nc23)cn1 + CC(=O)c1c(C)c2cnc(Nc3ccc(N4CCNCC4)cn3)nc2n(C2CCCC2)c1=O [Palbociclib] (partner 0.5 µM)
# Method in brief: as §1
# [14] = compound: Cn1cc(-c2cnn3c(N)c(Br)c([C@@H]4CCCNC4)nc23)cn1 + CCNC(=O)c1noc(-c2cc(C(C)C)c(O)cc2O)c1-c1ccc(CN2CCOCC2)cc1 [Luminespib] (partner 0.01 µM)
# Method in brief: as §1
# [15] = compound: Cn1cc(-c2cnn3c(N)c(Br)c([C@@H]4CCCNC4)nc23)cn1 + COc1cccc2cc(-c3nc([C@H]4CC[C@H](C(=O)O)CC4)n4ncnc(N)c34)[nH]c12 [OSI-027] (partner 0.5 µM)
# Method in brief: as §1
# [16] = compound: Cn1cc(-c2cnn3c(N)c(Br)c([C@@H]4CCCNC4)nc23)cn1 + Cc1cc(Nc2cc(N3CCN(C)CC3)nc(Sc3ccc(NC(=O)C4CC4)cc3)n2)n[nH]1 [Tozasertib] (partner 0.1 µM)
# Method in brief: as §1
# [17] = compound: Cn1cc(-c2cnn3c(N)c(Br)c([C@@H]4CCCNC4)nc23)cn1 + Cc1nc(Nc2ncc(C(=O)Nc3c(C)cccc3Cl)s2)cc(N2CCN(CCO)CC2)n1 [Dasatinib] (partner 0.075 µM)
# Method in brief: as §1
# [18] = compound: Cn1cc(-c2cnn3c(N)c(Br)c([C@@H]4CCCNC4)nc23)cn1 + NC(=O)Nc1cc(-c2cccc(F)c2)sc1C(=O)N[C@H]1CCCNC1 [AZD7762] (partner 0.2 µM)
# Method in brief: as §1
# [19] = compound: Cn1cc(-c2cnn3c(N)c(Br)c([C@@H]4CCCNC4)nc23)cn1 + Nc1nc2[nH]cc(CCc3ccc(C(=O)N[C@@H](CCC(=O)O)C(=O)O)cc3)c2c(=O)[nH]1 [Pemetrexed] (partner 0.2 µM)
# Method in brief: as §1
# [20] = compound: Cn1cc(-c2cnn3c(N)c(Br)c([C@@H]4CCCNC4)nc23)cn1 + O=C(CCCCCCC(=O)Nc1ccccc1)NO [Vorinostat] (partner 1 µM)
# Method in brief: as §1
cell line,measurement,setting,value
A549,relative viability,[1]; 0.05 µM,1.01
same,relative viability,[1]; 0.1581 µM,1.07
same,relative viability,[1]; 0.5 µM,0.946
same,relative viability,[1]; 1.581 µM,0.847
same,relative viability,[1]; 5 µM,0.813
same,relative viability,[2]; first compound 0.05 µM,1.25
same,relative viability,[2]; first compound 0.1581 µM,1.3
same,relative viability,[2]; first compound 0.5 µM,1.14
same,relative viability,[2]; first compound 1.581 µM,0.916
same,relative viability,[2]; first compound 5 µM,0.917
same,relative viability,[3]; first compound 0.05 µM,1.03
same,relative viability,[3]; first compound 0.1581 µM,1.2
same,relative viability,[3]; first compound 0.5 µM,0.93
same,relative viability,[3]; first compound 1.581 µM,0.664
same,relative viability,[3]; first compound 5 µM,0.711
same,relative viability,[4]; first compound 0.05 µM,1.03
same,relative viability,[4]; first compound 0.1581 µM,1.11
same,relative viability,[4]; first compound 0.5 µM,0.909
same,relative viability,[4]; first compound 1.581 µM,0.795
same,relative viability,[4]; first compound 5 µM,0.643
same,relative viability,[5]; first compound 0.05 µM,0.503
same,relative viability,[5]; first compound 0.1581 µM,0.606
same,relative viability,[5]; first compound 0.5 µM,0.434
same,relative viability,[5]; first compound 1.581 µM,0.284
same,relative viability,[5]; first compound 5 µM,0.307
same,relative viability,[6]; first compound 0.05 µM,0.783
same,relative viability,[6]; first compound 0.1581 µM,0.962
same,relative viability,[6]; first compound 0.5 µM,0.778
same,relative viability,[6]; first compound 1.581 µM,0.531
same,relative viability,[6]; first compound 5 µM,0.492
same,relative viability,[7]; first compound 0.05 µM,0.653
same,relative viability,[7]; first compound 0.1581 µM,0.664
same,relative viability,[7]; first compound 0.5 µM,0.48
same,relative viability,[7]; first compound 1.581 µM,0.588
same,relative viability,[7]; first compound 5 µM,0.43
same,relative viability,[8]; first compound 0.05 µM,0.659
same,relative viability,[8]; first compound 0.1581 µM,0.822
same,relative viability,[8]; first compound 0.5 µM,0.653
same,relative viability,[8]; first compound 1.581 µM,0.752
same,relative viability,[8]; first compound 5 µM,0.495
same,relative viability,[9]; first compound 0.05 µM,0.158
same,relative viability,[9]; first compound 0.1581 µM,0.907
same,relative viability,[9]; first compound 0.5 µM,0.215
same,relative viability,[9]; first compound 1.581 µM,0.149
same,relative viability,[9]; first compound 5 µM,0.115
same,relative viability,[10]; first compound 0.05 µM,0.323
same,relative viability,[10]; first compound 0.1581 µM,0.281
same,relative viability,[10]; first compound 0.5 µM,0.279
same,relative viability,[10]; first compound 1.581 µM,0.278
same,relative viability,[10]; first compound 5 µM,0.116
same,relative viability,[11]; first compound 0.05 µM,0.483
same,relative viability,[11]; first compound 0.1581 µM,0.35
same,relative viability,[11]; first compound 0.5 µM,0.352
same,relative viability,[11]; first compound 1.581 µM,0.301
same,relative viability,[11]; first compound 5 µM,0.166
NCI-H522,relative viability,[1]; 0.05 µM,0.927
same,relative viability,[1]; 0.1581 µM,0.986
same,relative viability,[1]; 0.5 µM,0.879
same,relative viability,[1]; 1.581 µM,0.828
same,relative viability,[1]; 5 µM,1.02
same,relative viability,[12]; first compound 0.05 µM,0.852
same,relative viability,[12]; first compound 0.1581 µM,0.754
same,relative viability,[12]; first compound 0.5 µM,0.699
same,relative viability,[12]; first compound 1.581 µM,0.802
same,relative viability,[12]; first compound 5 µM,0.579
same,relative viability,[13]; first compound 0.05 µM,1.1
same,relative viability,[13]; first compound 0.1581 µM,0.918
same,relative viability,[13]; first compound 0.5 µM,0.757
same,relative viability,[13]; first compound 1.581 µM,1.07
same,relative viability,[13]; first compound 5 µM,0.95
same,relative viability,[14]; first compound 0.05 µM,1.23
same,relative viability,[14]; first compound 0.1581 µM,1.26
same,relative viability,[14]; first compound 0.5 µM,1.17
same,relative viability,[14]; first compound 1.581 µM,1
same,relative viability,[14]; first compound 5 µM,0.87
same,relative viability,[15]; first compound 0.05 µM,0.344
same,relative viability,[15]; first compound 0.1581 µM,0.685
same,relative viability,[15]; first compound 0.5 µM,0.748
same,relative viability,[15]; first compound 1.581 µM,0.681
same,relative viability,[15]; first compound 5 µM,0.661
same,relative viability,[16]; first compound 0.05 µM,0.575
same,relative viability,[16]; first compound 0.1581 µM,0.638
same,relative viability,[16]; first compound 0.5 µM,0.6
same,relative viability,[16]; first compound 1.581 µM,0.577
same,relative viability,[16]; first compound 5 µM,0.543
same,relative viability,[17]; first compound 0.05 µM,0.785
same,relative viability,[17]; first compound 0.1581 µM,0.849
same,relative viability,[17]; first compound 0.5 µM,0.551
same,relative viability,[17]; first compound 1.581 µM,0.828
same,relative viability,[17]; first compound 5 µM,0.831
same,relative viability,[9]; first compound 0.05 µM,0.69
same,relative viability,[9]; first compound 0.1581 µM,0.625
same,relative viability,[9]; first compound 0.5 µM,0.642
same,relative viability,[9]; first compound 1.581 µM,0.669
same,relative viability,[9]; first compound 5 µM,0.664
same,relative viability,[18]; first compound 0.05 µM,0.616
same,relative viability,[18]; first compound 0.1581 µM,0.812
same,relative viability,[18]; first compound 0.5 µM,0.882
same,relative viability,[18]; first compound 1.581 µM,0.763
same,relative viability,[18]; first compound 5 µM,0.748
same,relative viability,[19]; first compound 0.05 µM,0.938
same,relative viability,[19]; first compound 0.1581 µM,0.913
same,relative viability,[19]; first compound 0.5 µM,1.02
same,relative viability,[19]; first compound 1.581 µM,1.01
same,relative viability,[19]; first compound 5 µM,0.865
same,relative viability,[10]; first compound 0.05 µM,0.675
same,relative viability,[10]; first compound 0.1581 µM,0.619
same,relative viability,[10]; first compound 0.5 µM,0.664
same,relative viability,[10]; first compound 1.581 µM,0.669
same,relative viability,[10]; first compound 5 µM,0.642
same,relative viability,[20]; first compound 0.05 µM,0.845
same,relative viability,[20]; first compound 0.1581 µM,0.936
same,relative viability,[20]; first compound 0.5 µM,0.871
same,relative viability,[20]; first compound 1.581 µM,0.842
same,relative viability,[20]; first compound 5 µM,0.797
same,relative viability,[11]; first compound 0.05 µM,0.674
same,relative viability,[11]; first compound 0.1581 µM,0.749
same,relative viability,[11]; first compound 0.5 µM,0.68
same,relative viability,[11]; first compound 1.581 µM,0.523
same,relative viability,[11]; first compound 5 µM,0.633
